ChEMBL document CHEMBL5724914, “Linking interpersonal differences in gut microbiota composition and drug biotransformation activity” (2024)

What was measured:
[1] = human gut metagenome, 24 h, 2 µM
[2] = human gut metagenome, 24 h, 2 µM; remark: listed apart in the source
[3] = human gut metagenome, 24 h, 2 µM; remark: listed apart in the source
[4] = (§1) The drug is tested on WLS-077 corresponding to human gut metagenome with ENA study accession number: PRJEB37062 and ENA sample accession number: ERS12561750 for biotransformation under anaerobic condition. The drug concentrations were measured over 9 timepoints collected between 0 and 24 hours of incubation by liquid-chromatography-coupled mass spectrometry (LC–MS); settings: 2 µM
[5] = as §1, with “Z-013” for “WLS-077”, “rabbit” for “human”, “ERS12561813” for “ERS12561750”; settings: 2 µM
[6] = human gut metagenome, 24 h, 2 µM; remark: listed apart in the source
[7] = human gut metagenome, 24 h, 2 µM; remark: listed apart in the source
[8] = as §1, with “WLS-069” for “WLS-077”, “ERS12561748” for “ERS12561750”; settings: 2 µM
[9] = human gut metagenome, 24 h, 2 µM; remark: listed apart in the source
Also: call rule not given here.

## CN1CCC[C@@H]1CCO[C@](C)(c1ccccc1)c1ccc(Cl)cc1.O=C(O)/C=C/C(=O)O [CLEMASTINE FUMARATE]
[1]
  Bacterial Biotransformation: Compound NOT metabolized
[2]
  Bacterial Biotransformation: Compound NOT metabolized
[3]
  Bacterial Biotransformation: Compound metabolized
[4]
  Bacterial Biotransformation: Compound NOT metabolized
[5]
  Bacterial Biotransformation: Compound NOT metabolized
[6]
  Bacterial Biotransformation: Compound NOT metabolized
[7]
  Bacterial Biotransformation: Compound NOT metabolized
[8]
  Bacterial Biotransformation: Compound metabolized
[9]
  Bacterial Biotransformation: Compound NOT metabolized

## CC(C)(C)NCC(O)c1cc(Cl)c(N)c(Cl)c1 (stereo unspecified) [CLENBUTEROL]
[1]
  Bacterial Biotransformation: Compound NOT metabolized
[2]
  Bacterial Biotransformation: Compound NOT metabolized
[3]
  Bacterial Biotransformation: Compound NOT metabolized
[4]
  Bacterial Biotransformation: Compound NOT metabolized
[5]
  Bacterial Biotransformation: Compound NOT metabolized
[6]
  Bacterial Biotransformation: Compound NOT metabolized
[7]
  Bacterial Biotransformation: Compound NOT metabolized
[8]
  Bacterial Biotransformation: Compound NOT metabolized
[9]
  Bacterial Biotransformation: Compound NOT metabolized

## C[N+]12CCC(CC1)C(OC(=O)C(O)(c1ccccc1)c1ccccc1)C2.[Br-] (stereo unspecified) [CLIDINIUM BROMIDE]
[1]
  Bacterial Biotransformation: Compound NOT metabolized
[2]
  Bacterial Biotransformation: Compound NOT metabolized
[3]
  Bacterial Biotransformation: Compound NOT metabolized
[4]
  Bacterial Biotransformation: Compound NOT metabolized
[5]
  Bacterial Biotransformation: Compound NOT metabolized
[6]
  Bacterial Biotransformation: Compound NOT metabolized
[7]
  Bacterial Biotransformation: Compound NOT metabolized
[8]
  Bacterial Biotransformation: Compound NOT metabolized
[9]
  Bacterial Biotransformation: Compound NOT metabolized

## Clc1cccc(Cl)c1N=C1NCCN1 [CLONIDINE]
[1]
  Bacterial Biotransformation: Compound NOT metabolized
[2]
  Bacterial Biotransformation: Compound NOT metabolized
[3]
  Bacterial Biotransformation: Compound NOT metabolized
[4]
  Bacterial Biotransformation: Compound NOT metabolized
[5]
  Bacterial Biotransformation: Compound NOT metabolized
[6]
  Bacterial Biotransformation: Compound metabolized
[7]
  Bacterial Biotransformation: Compound NOT metabolized
[8]
  Bacterial Biotransformation: Compound metabolized
[9]
  Bacterial Biotransformation: Compound NOT metabolized

## COC(=O)[C@H](c1ccccc1Cl)N1CCc2sccc2C1.O=S(=O)(O)O [CLOPIDOGREL BISULFATE]
[1]
  Bacterial Biotransformation: Compound metabolized
[2]
  Bacterial Biotransformation: Compound metabolized
[3]
  Bacterial Biotransformation: Compound metabolized
[4]
  Bacterial Biotransformation: Compound metabolized
[5]
  Bacterial Biotransformation: Compound metabolized
[6]
  Bacterial Biotransformation: Compound metabolized
[7]
  Bacterial Biotransformation: Compound metabolized
[8]
  Bacterial Biotransformation: Compound metabolized
[9]
  Bacterial Biotransformation: Compound metabolized

## O=P1(N(CCCl)CCCl)NCCCO1 (stereo unspecified) [CYCLOPHOSPHAMIDE ANHYDROUS]
[1]
  Bacterial Biotransformation: Compound NOT metabolized
[2]
  Bacterial Biotransformation: Compound NOT metabolized
[3]
  Bacterial Biotransformation: Compound metabolized
[4]
  Bacterial Biotransformation: Compound NOT metabolized
[5]
  Bacterial Biotransformation: Compound NOT metabolized
[6]
  Bacterial Biotransformation: Compound metabolized
[7]
  Bacterial Biotransformation: Compound metabolized
[8]
  Bacterial Biotransformation: Compound metabolized
[9]
  Bacterial Biotransformation: Compound metabolized

## Br.COc1ccc2c(c1)[C@]13CCCC[C@@H]1[C@H](C2)N(C)CC3.O [DEXTROMETHORPHAN HYDROBROMIDE]
[1]
  Bacterial Biotransformation: Compound metabolized
[2]
  Bacterial Biotransformation: Compound NOT metabolized
[3]
  Bacterial Biotransformation: Compound metabolized
[4]
  Bacterial Biotransformation: Compound metabolized
[5]
  Bacterial Biotransformation: Compound NOT metabolized
[6]
  Bacterial Biotransformation: Compound metabolized
[7]
  Bacterial Biotransformation: Compound metabolized
[8]
  Bacterial Biotransformation: Compound metabolized
[9]
  Bacterial Biotransformation: Compound NOT metabolized

## CC(=O)Nc1ccc(OC(C)=O)cc1 [DIACETAMATE]
[1]
  Bacterial Biotransformation: Compound metabolized
[2]
  Bacterial Biotransformation: Compound metabolized
[3]
  Bacterial Biotransformation: Compound metabolized
[4]
  Bacterial Biotransformation: Compound metabolized
[5]
  Bacterial Biotransformation: Compound metabolized
[6]
  Bacterial Biotransformation: Compound metabolized
[7]
  Bacterial Biotransformation: Compound metabolized
[8]
  Bacterial Biotransformation: Compound metabolized
[9]
  Bacterial Biotransformation: Compound metabolized

## CCN(CC)CCOC(=O)C1(C2CCCCC2)CCCCC1 [DICYCLOMINE]
[1]
  Bacterial Biotransformation: Compound NOT metabolized
[2]
  Bacterial Biotransformation: Compound NOT metabolized
[3]
  Bacterial Biotransformation: Compound metabolized
[4]
  Bacterial Biotransformation: Compound NOT metabolized
[5]
  Bacterial Biotransformation: Compound NOT metabolized
[6]
  Bacterial Biotransformation: Compound metabolized
[7]
  Bacterial Biotransformation: Compound NOT metabolized
[8]
  Bacterial Biotransformation: Compound metabolized
[9]
  Bacterial Biotransformation: Compound metabolized

## COc1ccc([C@@H]2Sc3ccccc3N(CCN(C)C)C(=O)[C@@H]2OC(C)=O)cc1 [DILTIAZEM]
[1]
  Bacterial Biotransformation: Compound NOT metabolized
[2]
  Bacterial Biotransformation: Compound metabolized
[3]
  Bacterial Biotransformation: Compound NOT metabolized
[4]
  Bacterial Biotransformation: Compound NOT metabolized
[5]
  Bacterial Biotransformation: Compound NOT metabolized
[6]
  Bacterial Biotransformation: Compound metabolized
[7]
  Bacterial Biotransformation: Compound NOT metabolized
[8]
  Bacterial Biotransformation: Compound metabolized
[9]
  Bacterial Biotransformation: Compound metabolized

## OCCN(CCO)c1nc(N2CCCCC2)c2nc(N(CCO)CCO)nc(N3CCCCC3)c2n1 [DIPYRIDAMOLE]
[1]
  Bacterial Biotransformation: Compound metabolized
[2]
  Bacterial Biotransformation: Compound NOT metabolized
[3]
  Bacterial Biotransformation: Compound NOT metabolized
[4]
  Bacterial Biotransformation: Compound metabolized
[5]
  Bacterial Biotransformation: Compound NOT metabolized
[6]
  Bacterial Biotransformation: Compound metabolized
[7]
  Bacterial Biotransformation: Compound metabolized
[8]
  Bacterial Biotransformation: Compound metabolized
[9]
  Bacterial Biotransformation: Compound NOT metabolized

## COc1cc2nc(N3CCN(C(=O)C4COc5ccccc5O4)CC3)nc(N)c2cc1OC.CS(=O)(=O)O (stereo unspecified) [DOXAZOSIN MESYLATE]
[1]
  Bacterial Biotransformation: Compound metabolized
[2]
  Bacterial Biotransformation: Compound NOT metabolized
[3]
  Bacterial Biotransformation: Compound metabolized
[4]
  Bacterial Biotransformation: Compound metabolized
[5]
  Bacterial Biotransformation: Compound metabolized
[6]
  Bacterial Biotransformation: Compound metabolized
[7]
  Bacterial Biotransformation: Compound metabolized
[8]
  Bacterial Biotransformation: Compound metabolized
[9]
  Bacterial Biotransformation: Compound NOT metabolized

## CN(C)CCOC(C)(c1ccccc1)c1ccccn1.O=C(O)CCC(=O)O (stereo unspecified) [DOXYLAMINE SUCCINATE]
[1]
  Bacterial Biotransformation: Compound NOT metabolized
[2]
  Bacterial Biotransformation: Compound NOT metabolized
[3]
  Bacterial Biotransformation: Compound NOT metabolized
[4]
  Bacterial Biotransformation: Compound NOT metabolized
[5]
  Bacterial Biotransformation: Compound NOT metabolized
[6]
  Bacterial Biotransformation: Compound NOT metabolized
[7]
  Bacterial Biotransformation: Compound NOT metabolized
[8]
  Bacterial Biotransformation: Compound NOT metabolized
[9]
  Bacterial Biotransformation: Compound NOT metabolized

## Br.CN1CCC[C@@H]1Cc1c[nH]c2ccc(CCS(=O)(=O)c3ccccc3)cc12 [ELETRIPTAN HYDROBROMIDE]
[1]
  Bacterial Biotransformation: Compound NOT metabolized
[2]
  Bacterial Biotransformation: Compound NOT metabolized
[3]
  Bacterial Biotransformation: Compound NOT metabolized
[4]
  Bacterial Biotransformation: Compound NOT metabolized
[5]
  Bacterial Biotransformation: Compound NOT metabolized
[6]
  Bacterial Biotransformation: Compound metabolized
[7]
  Bacterial Biotransformation: Compound NOT metabolized
[8]
  Bacterial Biotransformation: Compound metabolized
[9]
  Bacterial Biotransformation: Compound NOT metabolized

## CCOc1ccc2nc(S(N)(=O)=O)sc2c1 [ETHOXZOLAMIDE]
[1]
  Bacterial Biotransformation: Compound NOT metabolized
[2]
  Bacterial Biotransformation: Compound NOT metabolized
[3]
  Bacterial Biotransformation: Compound NOT metabolized
[4]
  Bacterial Biotransformation: Compound NOT metabolized
[5]
  Bacterial Biotransformation: Compound NOT metabolized
[6]
  Bacterial Biotransformation: Compound NOT metabolized
[7]
  Bacterial Biotransformation: Compound NOT metabolized
[8]
  Bacterial Biotransformation: Compound NOT metabolized
[9]
  Bacterial Biotransformation: Compound NOT metabolized

## CCc1cccc2c3c([nH]c12)C(CC)(CC(=O)O)OCC3 (stereo unspecified) [ETODOLAC]
[1]
  Bacterial Biotransformation: Compound metabolized
[2]
  Bacterial Biotransformation: Compound NOT metabolized
[3]
  Bacterial Biotransformation: Compound metabolized
[4]
  Bacterial Biotransformation: Compound NOT metabolized
[5]
  Bacterial Biotransformation: Compound NOT metabolized
[6]
  Bacterial Biotransformation: Compound metabolized
[7]
  Bacterial Biotransformation: Compound metabolized
[8]
  Bacterial Biotransformation: Compound metabolized
[9]
  Bacterial Biotransformation: Compound metabolized

## CC(=O)OCC(CCn1cnc2cnc(N)nc21)COC(C)=O [FAMCICLOVIR]
[1]
  Bacterial Biotransformation: Compound metabolized
[2]
  Bacterial Biotransformation: Compound metabolized
[3]
  Bacterial Biotransformation: Compound metabolized
[4]
  Bacterial Biotransformation: Compound metabolized
[5]
  Bacterial Biotransformation: Compound NOT metabolized
[6]
  Bacterial Biotransformation: Compound metabolized
[7]
  Bacterial Biotransformation: Compound metabolized
[8]
  Bacterial Biotransformation: Compound metabolized
[9]
  Bacterial Biotransformation: Compound metabolized

## CC(C)(C)NC(=O)[C@H]1CC[C@H]2[C@@H]3CC[C@H]4NC(=O)C=C[C@]4(C)[C@H]3CC[C@]12C [FINASTERIDE]
[1]
  Bacterial Biotransformation: Compound metabolized
[2]
  Bacterial Biotransformation: Compound metabolized
[3]
  Bacterial Biotransformation: Compound metabolized
[4]
  Bacterial Biotransformation: Compound metabolized
[5]
  Bacterial Biotransformation: Compound metabolized
[6]
  Bacterial Biotransformation: Compound metabolized
[7]
  Bacterial Biotransformation: Compound NOT metabolized
[8]
  Bacterial Biotransformation: Compound metabolized
[9]
  Bacterial Biotransformation: Compound metabolized

## CC1Cc2ccccc2N1NC(=O)c1ccc(Cl)c(S(N)(=O)=O)c1 (stereo unspecified) [INDAPAMIDE]
[1]
  Bacterial Biotransformation: Compound NOT metabolized
[2]
  Bacterial Biotransformation: Compound NOT metabolized
[3]
  Bacterial Biotransformation: Compound NOT metabolized
[4]
  Bacterial Biotransformation: Compound NOT metabolized
[5]
  Bacterial Biotransformation: Compound NOT metabolized
[6]
  Bacterial Biotransformation: Compound NOT metabolized
[7]
  Bacterial Biotransformation: Compound NOT metabolized
[8]
  Bacterial Biotransformation: Compound NOT metabolized
[9]
  Bacterial Biotransformation: Compound NOT metabolized
